Experimental data: patent US7153883B2, “Carboxylic acids and carboxylic acid isosteres of N-heterocyclic compounds” (GPI NIL Holdings Inc., priority 1998, dated 2006)

How the values were obtained:
[1] = test system: retinal ganglion cell axons; experiment: Protection of retinal ganglion cell axons 14 days after optic nerve transection (RT97); assay type: in vivo, Sprague Dawley rats; details: ± SEM
Source text: Efficacy of representative compounds from different immunophilin ligand series in protecting retinal ganglion cell axons from degeneration following optic nerve transection is set forth in Table VI.

Clearance = assay type: in vitro ADME
dopaminergic neurons = experiment: MPTP model of Parkinson's Disease in mice (TH immunostaining); assay type: in vivo, CD1 white mice; details: Mus musculus, Neuron, po; 10 mg/kg p.o.; MPTP-lesioned mice; read-out: Post-MPTP % TH RECOVERY
Protocol: MPTP lesioning of dopaminergic neurons in mice was used as an animal model of Parkinson's Disease. Four week old male CD1 white mice were dosed i.p. with 30 mg/kg of MPTP for 5 days. […] At 18 days following MPTP treatment, the animals were sacrificed and the striata were dissected and homogenized. Immunostaining was performed on saggital and coronal brain sections using anti-tyrosine hydroxylase Ig to quantitate survival and recovery of dopaminergic neurons. In animals treated with MPTP and vehicle, a substantial loss of functional dopaminergic terminals was observed as compared to non-lesioned animals. In another protocol, test compounds were administered only subsequent to MPTP-induced lesioning. Thus, after animals were treated with MPTP for 5 days, an additional 3 days passed before beginning oral drug treatment on day 8. […] On day 18, the animals were sacrificed and analyzed as described above.
Table V presents the percent recovery of dopaminergic neurons in the first (concurrent dosing) paradigm in animals receiving carboxylic acid or carboxylic acid isostere compounds of the present invention.
Percent striatal innervation density was quantitated in brain sections with an anti-tyrosine hydroxylase immunoglobulin, which is indicative of functional dopaminergic neurons. The striatal innervation density of 23% for animals pretreated with only a vehicle and administered a vehicle orally during treatment, is indicative of normal non-lesioned striatal tissue. Striatal innervation density is reduced to 5% for animals pretreated with MPTP and administered a vehicle orally during treatment, and is indicative of MPTP-induced lesioning.

hair growth = experiment: In vivo hair generation test with C57 Black 6 mice; details: topical, 1 μmole per milliliter three times per week, evaluated after 14 days
Protocol: Care was taken not to nick or cause abrasion to the underlaying dermal layers. The animals were in anagen growth phase, as indicated by the pinkish color of the skin. Referring now to FIG. 2, four animals per group were treated by topical administration with 20% propylene glycol vehicle (FIG. 2), or neuroimmunophilin FKBP ligands dissolved in the vehicle. The animals were treated with vehicle or neuroimmunophilin ligands every 48 hours (3 applications total over the course of 5 days) and the hair growth was allowed to proceed for 6 weeks. Hair growth was quantitated by the percent of shaved area covered by new hair growth during this time period.
Care was taken not to nick or cause abrasion to the underlying dermal layers. Compounds at a concentration of 1 μmole per milliliter were carefully applied to the shaved area of the mice (5 mice per group) three times per week. Hair growth was evaluated 14 days after initiation of drug treatment. The relative scale for assessing hair growth is as follows: • 0=no growth; • 1=beginning of growth in small tufts; • 2=hair growth covering over <25% of shaved area; • 3=hair growth covering over >25% of shaved area, but less than 50% of shaved area; • 4=hair growth covering over >50% of shaved area, but less than 75% of shaved area; • 5=complete hair growth of shaved area.

spatial memory = experiment: Morris watermaze spatial learning and memory in aged rodents; assay type: in vivo, C57BL/6N-Nia mice; details: 10 mg/kg daily, retention testing after 3 weeks of dosing; aged impaired mice
Source text: The Morris watermaze is widely used for assessing spatial memory formation and retention in experimental animals. The test depends on the animal's ability to utilize spatial visual information in order to locate a submerged escape platform in a water tank. It is important that the tank itself be as devoid of specific visual features as possible—thus, it is always circular in shape, the sides are kept smooth and in uniform dull colors, and the water is rendered opaque with nontoxic watercolour pigment or powdered milk. This is to ensure that the animal navigates only by the use of more distant visual cues, or by the use of intra-maze cues specifically provided by the experimenter. The animals' path, speed, and swim time are tracked with a ceiling camera for later computerized analysis. Over the course of several successive trials, spatial learning can therefore be defined as a drop of distance swum, or time elapsed, from placement in the tank until escape onto the invisible platform. The procedure involved using three-month old (young) and 18–19 month old male C57BL/6N-Nia (aged) mice which habituated to the well known and conventional Morris watermaze during a 4 trials/day, 3–4 day visible platform training phase. […] Swim Distances (cm) were analyzed in a 7×5 ANOVA including Groups and Blocks (1–5) as factors in the analysis, treating Blocks as a repeated measure.

retina = experiment: Streptozotocin induced diabetes: retinal neovascularization and neuron loss; assay type: in vivo; details: 28 day treatment beginning 8 weeks after onset of diabetes
retinal ganglion cells = experiment: Retinal ischemia: ganglion cell, optic nerve axon and myelin degeneration; assay type: in vivo, rats
Source text: Retinal ganglion cells were retrogradely labeled in adult rats by bilateral injection of fluorogold in their lateral geniculate nuclei. Labeled ganglion cells in the normal rat retina appear as white profiles against the dark background (FIG. 4A). Complete retinal ischemia was produced by infusing normal saline solution into the retinal vitreous cavity of each eye until the intraocular pressure exceeded arterial blood pressure. 28 days after the ischemic episode extensive degeneration of retinal ganglion cell was evidenced by massive reduction in the density of fluorogold labeled cells (FIG. 4B).

[2] = test system: retinal ganglion cells and optic nerve axons; experiment: Optic nerve transection: retinal ganglion cell survival, optic nerve axons and myelin 90 days after transection; assay type: in vivo, Sprague Dawley rats
Source text: Transection of the mammalian optic nerve results in a brief period of abortive regeneration, but the majority of axotomized neurons die and the axons from many persisting ganglion cells die back beyond the optic nerve head. […]
All eyes and optic nerves stumps were removed.

[3] = 28 days after 1 hour retinal ischemic episode
[4] = 10 mg/kg/day s.c. for 28 days, 90 days after transection
[5] = treatment first 14 days, 90 days after transection
[6] = treatment first 28 days, 90 days after transection

O=C(SCCCc1ccccc1)[C@@H]1CCCN1S(=O)(=O)Cc1ccccc1 [C]
RT97 + RGC axon density 14 days after ON transection (% ON axons rescued) [1]: 60.4%±3.1%SEM | Clearance (Clearance): 31.1 µL/min

CCC(C)(C)C(=O)C(=O)N1CCC[C@H]1CO [Compound 26, (2S)-1-(1,2-dioxo-3,3-dimethylpentyl)-2-hydroxymethyl pyrrolidine]
percent TH recovery after MPTP at 10 mg/kg (dopaminergic neurons): 23.2%

CCC(C)(C)C(=O)C(=O)N1CCC[C@H]1CC#N [Compound 28, 2-[1-(3,3-Dimethyl-2-oxopentanoyl)pyrrolidin-2-yl]ethanenitrile]
percent TH recovery after MPTP at 10 mg/kg (dopaminergic neurons): 15.7% | melting point: 91 to 93 °C

CCC(C)(C)C(=O)C(=O)N1CCC[C@H]1C#N [Compound 29, (2S)-1-(1,2-dioxo-3,3-dimethylpentyl)-2-pyrrolidinecarbonitrile]
percent TH recovery after MPTP at 10 mg/kg (dopaminergic neurons): 34.1%

CCC(C)(C)C(=O)C(=O)N1CCC[C@H]1c1nnn[nH]1 [Compound 30, (2S)-1-(1,2-dioxo-3,3-dimethylpentyl)-2-pyrrolidinetetrazole]
percent TH recovery after MPTP at 10 mg/kg (dopaminergic neurons): 19.6%

CCC(C)(C)C(=O)C(=O)N1CCCC[C@H]1C(N)=O [Compound 35, (2S)-1-(1,2-dioxo-3,3-dimethylpentyl)-2-aminocarbonyl piperidine]
percent TH recovery after MPTP at 10 mg/kg (dopaminergic neurons): 46.5% | hair growth on shaved area (hair growth): dramatic hair growth

CCC(C)(C)C(=O)C(=O)N1CCC[C@H]1C(=O)O [Compound 137, (2S)-1-(1,2-dioxo-3,3-dimethylpentyl)-2-pyrrolidinecarboxylic acid]
percent TH recovery after MPTP at 10 mg/kg (dopaminergic neurons): 26.7% | hair growth on shaved area (hair growth): dramatic hair growth

CCC(C)(C)C(=O)C(=O)N1CCC[C@H]1C(=O)NNC(=O)c1cccs1 [Compound 140, [1-(3,3-Dimethyl-2-oxopentanoyl)pyrrolidin-2-yl]-N-(2-thienylcarbonylamino)-formamide]
percent TH recovery after MPTP at 10 mg/kg (dopaminergic neurons): 10.4% | melting point: 72 to 74 °C

CCC(C)(C)C(=O)C(=O)N1CCC[C@H]1COc1ccc([N+](=O)[O-])cc1 [Compound 141, 3,3-Dimethyl-1-{2-[(4-nitrophenoxy)methyl]pyrrolidinyl}pentane-1,2-dione]
percent TH recovery after MPTP at 10 mg/kg (dopaminergic neurons): 26.3%

CCC(C)(C)C(=O)C(=O)N1CCC[C@H]1C(=O)NNS(=O)(=O)c1ccc(C)cc1 [Compound 146, [1-(3,3-Dimethyl-2-oxopentanoyl)pyrrolidin-2-yl]-N-{[(4-methylphenyl)sulfonyl]-amino}formamide]
percent TH recovery after MPTP at 10 mg/kg (dopaminergic neurons): 40.6% | melting point: 59 to 61 °C

CCC(C)(C)C(=O)C(=O)N1CCC[C@H]1C(=O)NNS(=O)(=O)c1ccc(F)cc1 [Compound 147]
melting point: 57 to 60 °C

CCC(C)(C)C(=O)C(=O)N1CCC[C@H]1c1nnc(S)[nH]1 [Compound 148, (2S)-3,3-Dimethyl-1-[2-(5-sulfanyl(4H-1,2,4-triazol-3-yl))pyrrolidinyl]-pentane-1,2-dione]
percent TH recovery after MPTP at 10 mg/kg (dopaminergic neurons): 21.4%

CCC(C)(C)C(=O)C(=O)N1CCCCC1C(=O)OC(CCc1ccccc1)CCc1ccccc1 (stereo not shown) [E]
Clearance (Clearance): 41.8 µL/min

CCC(C)(C)C(=O)C(=O)N1CCC[C@H]1C(=O)OCCCc1cccnc1 [GPI 1046]
RT97 + RGC axon density 14 days after ON transection (% ON axons rescued) [1]: 60.5%±3.9%SEM | spatial memory performance (retention testing, swim distance) (spatial memory): significantly enhanced spatial memory performance | Clearance (Clearance): 63.8 µL/min | neovascularization in the PR, ONL, OPL and INL (retina): reduced neovascularization | neuronal loss in the ONL (retina): did not appear to protect against neuronal loss in the ONL | loss of neurons in the INL and GCL (retina; vs streptozotocin/vehicle): appeared to decrease the loss of neurons | protection of vulnerable ganglion cell population (retinal ganglion cells; 10 mg/kg s.c. 1 hour prior to ischemia and 10 mg/kg/day next four days, 28 days after ischemia): noticeable protection of a large proportion | density of degenerating myelin figures (retinal ganglion cells; [3]): dramatically decreased | optic nerve axon degeneration (retinal ganglion cells; [3]): protected the majority of optic nerve axons from degeneration | axons of protected neurons in the proximal stump [2, 4]: preserved the axons of virtually all protected neurons | ganglion cell population spared [2, 4]: 25% | density of large, medium and small caliber optic nerve axons ([2]; 28 day treatment): significant increase | density of myelin, distal stump ([2]; treatment first 14 days): slightly increase the density of myelin | shrinkage of the distal stump ([2]; treatment first 14 days): did not protect against shrinkage of the distal stump | protection of optic nerve axons, proximal stump [2, 5]: 5.3% | recovery in myelin density, proximal stump [2, 5]: 1.6% | cross sectional shrinkage of the distal stump ([2]; treatment first 28 days): prevented cross sectional shrinkage | protection of the vulnerable ganglion cell population ([2]; treatment first 28 days after transection, 90 days after transection): 12.6% | myelin levels in distal stump, % of normal levels [2, 6]: 99% | recovery of myelin density, proximal stump [2, 6]: 70% | density of retinal ganglion cells that survived ([2]; treatment for 14 days, 90 days after transection): small but not significant increase | spared retinal ganglion cells with protected optic nerve axons ([2]; treatment for 28 days, 90 days after transection): 81.4%

O=C(OCCCc1cccnc1)[C@@H]1CCCN1C(=S)NC1CCCCC1 [I]
Clearance (Clearance): 8.0 µL/min

CCC(C)(C)C(=O)C(=O)N1CCC[C@H]1C(=O)CCCCc1cccnc1 [J]
Clearance (Clearance): 1.5 µL/min

CCC(C)(C)C(=O)C(=O)N1CCCC[C@H]1C(=O)SCCC(c1ccccc1)c1ccccc1 [K]
Clearance (Clearance): 4.5 µL/min

CCC(C)(C)C(=O)C(=O)N1CCC[C@H]1C(=O)O [L]
RT97 + RGC axon density 14 days after ON transection (% ON axons rescued) [1]: 7.8%±3.0%SEM | Clearance (Clearance): 5.2 µL/min

CCC(C)(C)C(=O)C(=O)N1CCC[C@H]1C(=O)SCCC(c1ccccc1)c1ccccc1 [M]
RT97 + RGC axon density 14 days after ON transection (% ON axons rescued) [1]: −6.3%±3.9%SEM | Clearance (Clearance): 12.5 µL/min

CN(C)C(=O)N1CCC[C@H]1C(=O)SCCCc1ccccc1 [N]
Clearance (Clearance): 21.9 µL/min
